# The source made the active and inactive calls. The calls are words filed in the database; no cut-off is given here. Where a SMILES comes first, the peptide text is derived from it.
# T1: Papain (Carica papaya, UniProt P00784)
# T1 sequence (P00784 whole entry): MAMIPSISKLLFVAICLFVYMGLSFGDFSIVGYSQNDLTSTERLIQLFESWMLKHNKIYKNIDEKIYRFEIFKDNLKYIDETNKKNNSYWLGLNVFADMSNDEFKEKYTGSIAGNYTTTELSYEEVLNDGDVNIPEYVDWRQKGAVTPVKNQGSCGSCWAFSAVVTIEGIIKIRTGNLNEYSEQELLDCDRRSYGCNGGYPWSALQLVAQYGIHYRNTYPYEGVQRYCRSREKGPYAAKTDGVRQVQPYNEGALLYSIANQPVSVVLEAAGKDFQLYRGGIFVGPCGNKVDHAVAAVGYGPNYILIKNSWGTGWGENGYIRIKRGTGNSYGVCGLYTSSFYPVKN
# T2: Papain (Carica papaya) (UniProt P00784)
# T2 sequence (whole entry): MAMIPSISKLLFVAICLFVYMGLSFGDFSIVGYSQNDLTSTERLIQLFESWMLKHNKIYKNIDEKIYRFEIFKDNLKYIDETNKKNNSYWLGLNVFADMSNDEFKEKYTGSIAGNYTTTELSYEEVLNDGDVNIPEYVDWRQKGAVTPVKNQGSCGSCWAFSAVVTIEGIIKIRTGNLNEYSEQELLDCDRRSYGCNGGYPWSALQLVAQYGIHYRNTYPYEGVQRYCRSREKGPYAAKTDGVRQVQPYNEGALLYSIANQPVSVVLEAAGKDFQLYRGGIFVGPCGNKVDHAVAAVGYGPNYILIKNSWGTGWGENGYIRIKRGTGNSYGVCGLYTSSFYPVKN
# B1: Papain (Carica papaya), P00784 (protein)
# chain: MAMIPSISKLLFVAICLFVYMGLSFGDFSIVGYSQNDLTSTERLIQLFESWMLKHNKIYKNIDEKIYRFEIFKDNLKYIDETNKKNNSYWLGLNVFADMSNDEFKEKYTGSIAGNYTTTELSYEEVLNDGDVNIPEYVDWRQKGAVTPVKNQGSCGSCWAFSAVVTIEGIIKIRTGNLNEYSEQELLDCDRRSYGCNGGYPWSALQLVAQYGIHYRNTYPYEGVQRYCRSREKGPYAAKTDGVRQVQPYNEGALLYSIANQPVSVVLEAAGKDFQLYRGGIFVGPCGNKVDHAVAAVGYGPNYILIKNSWGTGWGENGYIRIKRGTGNSYGVCGLYTSSFYPVKN
# How the values were obtained:
# [1] = Inhibition of hydrolysis of Z-Gly-NPby administration of the compound
# Papain [2] = biological target: T1, Papain; experiment: Inhibitory activity against papain; Weak competitive inhibitor
# Papain (Carica papaya) [3] = biological target: T2, Papain (Carica papaya); experiment: Pseudo first order rate constant against papain
# Papain [4] = biological target: T1, Papain; experiment: Inhibitory activity against papain
# [5] = Inhibition of hydrolysis of Z-Gly-NP by administration of the 1 uM compound; Markedly inhibited
# Papain (Carica papaya) [6] = biological target: T2, Papain (Carica papaya); experiment: Inhibitory activity against papain; No detectab inactivation
# [7] = substrate: O=C(O)CNC(=O)OCc1ccccc1; experiment: Papain-catalyzed hydrolysis was expressed as Km
molecule,measurement,setting,value
CC(=O)N[C@@H](Cc1ccccc1)C(=O)NCC(N)=O (Ac-Phe-Gly-NH2),Ki,[1],4.7 mM
C=CCNC(=O)C(Cc1ccccc1)NC(C)=O (stereo not drawn),Ki,Papain [2],> 5 mM
COC(=O)CCCNC(=O)C(Cc1ccccc1)NC(C)=O (stereo not drawn),Ki,Papain [2],> 5 mM
COC(=O)/C=C/CNC(=O)C(Cc1ccccc1)NC(C)=O (stereo not drawn),K2,Papain (Carica papaya) [3],0.00182 s⁻¹
same,Ki,Papain [4],0.026 mM
same,inhibition,[5],Markedly inhibited
COC(=O)/C=C/C(Cc1ccccc1)NC(C)=O (stereo not drawn),inhibition,Papain (Carica papaya) [6],inactive
B1,Km,[7],10.3 µM

# From ChEMBL document CHEMBL1122661, “Vinylogous amino acid esters: a new class of inactivators for thiol proteases” (J Med Chem, 1984)
